This note sets out measurements from ChEMBL document CHEMBL1124091, “Synthesis, resolution, and absolute configuration of the isomers of the neuronal excitant 1-amino-1,3-cyclopentanedicarboxylic acid” (J Med Chem, 1988).

This test is described as follows: Repolarization time for compound was measured by pattern firing by APN and KVN blockade. It counts as functional. Also on record: unit not given here.

The compound `C=C(C)[C@H]1CN[C@H](C(=O)O)[C@H]1CC(=O)O` showed a Repolarization time of 19.9.

For `N[C@@]1(C(=O)O)CC[C@H](C(=O)O)C1` (stereo in doubt; cis), the Repolarization time is 15.

The compound `N[C@@]1(C(=O)O)CC[C@H](C(=O)O)C1` (stereo in doubt; trans) returned a Repolarization time of 17.

For the compound `N[C@H](Cn1oc(=O)[nH]c1=O)C(=O)O`, the Repolarization time was determined as 7.8.

The compound `N[C@]1(C(=O)O)CC[C@@H](C(=O)O)C1` showed a Repolarization time of 10.5.

On to `CN[C@H](CC(=O)O)C(=O)O`, for which the Repolarization time turned out to be 8.

Take `N[C@]1(C(=O)O)CC[C@H](C(=O)O)C1`: the Repolarization time is 12.7.
